Assay results as given in ChEMBL document CHEMBL3885881, “DrugMatrix”.

Species: Rattus norvegicus
Experiment: DrugMatrix - Regimen: Daily Repeat
Assay type: toxicity, organism-based, Sprague-Dawley
Design: regimen Daily Repeat, gender Male, age 6-8 weeks
Settings: in vivo, po, route oral GAVAGE, […]; for ABSOLUTE BASOPHIL / ABSOLUTE EOSINOPHIL / ABSOLUTE LYMPHOCYTE / ABSOLUTE MONOCYTE / ABSOLUTE SEGMENTED NEUTROPHIL / BASOPHIL / EOSINOPHIL / ERYTHROCYTE COUNT / HEMATOCRIT / HEMOGLOBIN / LEUKOCYTE COUNT / LYMPHOCYTE / MEAN CORPUSCULAR HEMOGLOBIN / MEAN CORPUSCULAR HEMOGLOBIN CONCENTRATION / MEAN CORPUSCULAR VOLUME / MONOCYTE / NEUTROPHIL / NUCLEATED RED BLOOD CELLS / PLATELET COUNT: tissue Blood; for ALANINE AMINOTRANSFERASE / ALBUMIN / ALKALINE PHOSPHATASE / ASPARTATE AMINOTRANSFERASE / BLOOD UREA NITROGEN / CARBON DIOXIDE / CHLORIDE / CHOLESTEROL / CREATINE PHOSPHOKINASE / CREATININE / GLUCOSE / LACTATE DEHYDROGENASE / LIPASE / PHOSPHORUS / POTASSIUM / SODIUM / TOTAL BILIRUBIN / TOTAL PROTEIN / URIC ACID: tissue Plasma
[1] = 0 mg/kg, 72 h, dose level Control, time 3 day
[2] = 0 mg/kg, 120 h, dose level Control, time 5 day
[3] = 100 mg/kg, 72 h, dose level Low, time 3 day

Q: CC(C)(Oc1ccc(Cl)cc1)C(=O)O [CLOFIBRIC ACID] was tested. Which “ABSOLUTE BASOPHIL” value [1] did it give?
A: 0 CELLS/uL

Q: What about the “ABSOLUTE EOSINOPHIL” value [1] of the same molecule?
A: 0 CELLS/uL

Q: And the “ABSOLUTE LYMPHOCYTE” value [1]?
A: 14687.67 CELLS/uL

Q: What about the “ABSOLUTE MONOCYTE” value [1] of the same molecule?
A: 164 CELLS/uL

Q: What about the “ABSOLUTE SEGMENTED NEUTROPHIL” value [1] of the same molecule?
A: 1748.33 CELLS/uL

Q: And the BASOPHIL [1]?
A: 0%

Q: And the EOSINOPHIL [1]?
A: 0%

Q: And the “ERYTHROCYTE COUNT” value [1]?
A: 5.51 x10E6/uL

Q: What about the HEMATOCRIT [1] of the same molecule?
A: 33.68%

Q: What about the HEMOGLOBIN [1] of the same molecule?
A: 13.4 G/DL

Q: What about the “LEUKOCYTE COUNT” value [1] of the same molecule?
A: 16.6 x10E3/uL

Q: What about the LYMPHOCYTE [1] of the same molecule?
A: 88.83%

Q: And the “MEAN CORPUSCULAR HEMOGLOBIN” value [1]?
A: 24.47 pg

Q: And the “MEAN CORPUSCULAR HEMOGLOBIN CONCENTRATION” value [1]?
A: 39.82 G/DL

Q: What about the “MEAN CORPUSCULAR VOLUME” value [1] of the same molecule?
A: 61.23 fL

Q: What about the MONOCYTE [1] of the same molecule?
A: 0.83%

Q: And the NEUTROPHIL [1]?
A: 10.33%

Q: And the “NUCLEATED RED BLOOD CELLS” value [1]?
A: 0 /100WBC

Q: What about the “PLATELET COUNT” value [1] of the same molecule?
A: 1329.67 x10E3/uL

Q: What about the “ALANINE AMINOTRANSFERASE” value [1] of the same molecule?
A: 61.33 u/L

Q: What about the ALBUMIN [1] of the same molecule?
A: 4.18 G/DL

Q: What about the “ALKALINE PHOSPHATASE” value [1] of the same molecule?
A: 332.5 u/L

Q: What about the “ASPARTATE AMINOTRANSFERASE” value [1] of the same molecule?
A: 98.33 u/L

Q: And the “BLOOD UREA NITROGEN” value [1]?
A: 15.83 mg/dL

Q: What about the “CARBON DIOXIDE” value [1] of the same molecule?
A: 27.83 mmol/L

Q: What about the CHLORIDE [1] of the same molecule?
A: 100 MEQ/L

Q: What about the CHOLESTEROL [1] of the same molecule?
A: 76.17 mg/dL

Q: And the “CREATINE PHOSPHOKINASE” value [1]?
A: 729.17 u/L

Q: And the CREATININE [1]?
A: 0.21 mg/dL

Q: What about the GLUCOSE [1] of the same molecule?
A: 151.83 mg/dL

Q: And the “LACTATE DEHYDROGENASE” value [1]?
A: 484.67 u/L

Q: What about the LIPASE [1] of the same molecule?
A: 10 u/L

Q: What about the PHOSPHORUS [1] of the same molecule?
A: 11.3 mg/dL

Q: What about the POTASSIUM [1] of the same molecule?
A: 6.1 MEQ/L

Q: And the SODIUM [1]?
A: 142.9 MEQ/L

Q: What about the “TOTAL BILIRUBIN” value [1] of the same molecule?
A: 0.23 mg/dL

Q: And the “TOTAL PROTEIN” value [1]?
A: 5.68 G/DL

Q: What about the “URIC ACID” value [1] of the same molecule?
A: 1.75 mg/dL

Q: What about the “ABSOLUTE BASOPHIL” value [2] of the same molecule?
A: 0 CELLS/uL

Q: And the “ABSOLUTE EOSINOPHIL” value [2]?
A: 58.67 CELLS/uL

Q: And the “ABSOLUTE LYMPHOCYTE” value [2]?
A: 15950.83 CELLS/uL

Q: What about the “ABSOLUTE MONOCYTE” value [2] of the same molecule?
A: 172.5 CELLS/uL

Q: What about the “ABSOLUTE SEGMENTED NEUTROPHIL” value [2] of the same molecule?
A: 2551.33 CELLS/uL

Q: And the BASOPHIL [2]?
A: 0%

Q: And the EOSINOPHIL [2]?
A: 0.33%

Q: What about the “ERYTHROCYTE COUNT” value [2] of the same molecule?
A: 5.5 x10E6/uL

Q: And the HEMATOCRIT [2]?
A: 34.05%

Q: What about the HEMOGLOBIN [2] of the same molecule?
A: 13.42 G/DL

Q: And the “LEUKOCYTE COUNT” value [2]?
A: 18.73 x10E3/uL

Q: And the LYMPHOCYTE [2]?
A: 84.5%

Q: And the “MEAN CORPUSCULAR HEMOGLOBIN” value [2]?
A: 24.42 pg

Q: And the “MEAN CORPUSCULAR HEMOGLOBIN CONCENTRATION” value [2]?
A: 39.42 G/DL

Q: And the “MEAN CORPUSCULAR VOLUME” value [2]?
A: 61.97 fL

Q: What about the MONOCYTE [2] of the same molecule?
A: 1%

Q: What about the NEUTROPHIL [2] of the same molecule?
A: 14.17%

Q: What about the “NUCLEATED RED BLOOD CELLS” value [2] of the same molecule?
A: 0.33 /100WBC

Q: What about the “PLATELET COUNT” value [2] of the same molecule?
A: 1143.17 x10E3/uL

Q: What about the “ALANINE AMINOTRANSFERASE” value [2] of the same molecule?
A: 57 u/L

Q: What about the ALBUMIN [2] of the same molecule?
A: 4.17 G/DL

Q: What about the “ALKALINE PHOSPHATASE” value [2] of the same molecule?
A: 347.33 u/L

Q: And the “ASPARTATE AMINOTRANSFERASE” value [2]?
A: 93.67 u/L

Q: And the “BLOOD UREA NITROGEN” value [2]?
A: 15.67 mg/dL

Q: And the “CARBON DIOXIDE” value [2]?
A: 27.17 mmol/L

Q: And the CHLORIDE [2]?
A: 104.33 MEQ/L

Q: And the CHOLESTEROL [2]?
A: 69.5 mg/dL

Q: What about the “CREATINE PHOSPHOKINASE” value [2] of the same molecule?
A: 317.17 u/L

Q: What about the CREATININE [2] of the same molecule?
A: 0.2 mg/dL

Q: What about the GLUCOSE [2] of the same molecule?
A: 162.33 mg/dL

Q: And the “LACTATE DEHYDROGENASE” value [2]?
A: 408.67 u/L

Q: And the LIPASE [2]?
A: 10.17 u/L

Q: And the PHOSPHORUS [2]?
A: 11.08 mg/dL

Q: And the POTASSIUM [2]?
A: 6.36 MEQ/L

Q: And the SODIUM [2]?
A: 146.07 MEQ/L

Q: What about the “TOTAL BILIRUBIN” value [2] of the same molecule?
A: 0.22 mg/dL

Q: And the “TOTAL PROTEIN” value [2]?
A: 5.92 G/DL

Q: What about the “URIC ACID” value [2] of the same molecule?
A: 1.47 mg/dL

Q: And the “ABSOLUTE BASOPHIL” value [3]?
A: 0 CELLS/uL

Q: And the “ABSOLUTE EOSINOPHIL” value [3]?
A: 83.33 CELLS/uL

Q: What about the “ABSOLUTE LYMPHOCYTE” value [3] of the same molecule?
A: 12714.67 CELLS/uL

Q: And the “ABSOLUTE MONOCYTE” value [3]?
A: 127.67 CELLS/uL

Q: What about the “ABSOLUTE SEGMENTED NEUTROPHIL” value [3] of the same molecule?
A: 1507.67 CELLS/uL

Q: What about the BASOPHIL [3] of the same molecule?
A: 0%

Q: What about the EOSINOPHIL [3] of the same molecule?
A: 0.67%

Q: What about the “ERYTHROCYTE COUNT” value [3] of the same molecule?
A: 5.9 x10E6/uL

Q: What about the HEMATOCRIT [3] of the same molecule?
A: 36.47%

Q: What about the HEMOGLOBIN [3] of the same molecule?
A: 14.53 G/DL

Q: And the “LEUKOCYTE COUNT” value [3]?
A: 14.43 x10E3/uL

Q: What about the LYMPHOCYTE [3] of the same molecule?
A: 88%

Q: And the “MEAN CORPUSCULAR HEMOGLOBIN” value [3]?
A: 24.67 pg

Q: What about the “MEAN CORPUSCULAR HEMOGLOBIN CONCENTRATION” value [3] of the same molecule?
A: 39.87 G/DL

Q: What about the “MEAN CORPUSCULAR VOLUME” value [3] of the same molecule?
A: 61.83 fL

Q: What about the MONOCYTE [3] of the same molecule?
A: 1%

Q: What about the NEUTROPHIL [3] of the same molecule?
A: 10.33%

Q: What about the “NUCLEATED RED BLOOD CELLS” value [3] of the same molecule?
A: 0 /100WBC

Q: What about the “PLATELET COUNT” value [3] of the same molecule?
A: 1176.67 x10E3/uL

Q: And the “ALANINE AMINOTRANSFERASE” value [3]?
A: 51 u/L

Q: What about the ALBUMIN [3] of the same molecule?
A: 4.33 G/DL

Q: And the “ALKALINE PHOSPHATASE” value [3]?
A: 364.33 u/L

Q: What about the “ASPARTATE AMINOTRANSFERASE” value [3] of the same molecule?
A: 99.67 u/L

Q: And the “BLOOD UREA NITROGEN” value [3]?
A: 17 mg/dL

Q: What about the “CARBON DIOXIDE” value [3] of the same molecule?
A: 27 mmol/L

Q: And the CHLORIDE [3]?
A: 96 MEQ/L

Q: And the CHOLESTEROL [3]?
A: 62 mg/dL

Q: And the “CREATINE PHOSPHOKINASE” value [3]?
A: 636.33 u/L

Q: And the CREATININE [3]?
A: 0.34 mg/dL

Q: And the GLUCOSE [3]?
A: 180.67 mg/dL

Q: And the “LACTATE DEHYDROGENASE” value [3]?
A: 303.67 u/L

Q: What about the LIPASE [3] of the same molecule?
A: 9.33 u/L

Q: And the PHOSPHORUS [3]?
A: 11.9 mg/dL

Q: What about the POTASSIUM [3] of the same molecule?
A: 5.92 MEQ/L

Q: What about the SODIUM [3] of the same molecule?
A: 141 MEQ/L

Q: And the “TOTAL BILIRUBIN” value [3]?
A: 0.1 mg/dL

Q: What about the “TOTAL PROTEIN” value [3] of the same molecule?
A: 5.8 G/DL

Q: What about the “URIC ACID” value [3] of the same molecule?
A: 2.07 mg/dL
